Earlier results in patent US9974685B2, “Drug delivery system and methods of treating open angle glaucoma and ocular hypertension” (Mati Therapeutics, Inc., priority 2011, dated 2018).

How the values were obtained:
healthy volunteers = settings: 28 healthy volunteers; 1 drop of 50 μg/mL 4 times daily for 2 weeks; resolved spontaneously without cessation of treatment
cynomolgus monkeys = settings: doses up to 50 μg/eye twice daily (100 μg/eye/day), 52 weeks, not judged to be deleterious
rabbits = settings: twice-daily ocular instillation, doses up to 50 μg per eye for 52 weeks (100 μg/eye/day)

SMILES: CC(C)OC(=O)CCC/C=C\C[C@@H]1[C@@H](CC[C@@H](O)CCc2ccccc2)[C@H](O)C[C@@H]1O [Latanoprost, isopropyl-(Z)-7 [(1R,2R,3R,5S)3,5-dihydroxy-2-[(3R)-3-hydroxy-5-phenylpentyl]cyclopentyl]-5-heptenoate]
- ocular effects during the 4-dose regimen (healthy volunteers): transient photophobia, cells, and mild flare were common
- solubility in organic solvents (acetone, ethanol, ethyl acetate, isopropanol, methanol and octanol): freely soluble
- solubility in acetonitrile (acetonitrile): very soluble
- solubility in water (water): practically insoluble
- effects observed (cynomolgus monkeys): a reversible change in the aspect of the palpebral fissure and a non-reversible increase in iris pigmentation
- adverse effects (rabbits): no adverse effects
